In patent publication US9206177B2, “Substituted dimeric quinazoline-2,4-diones as FGF receptor agonists” (Sanofi, priority 2011, dated 2015):

What was measured:
[1] = tested on: human venous endothelial cells (HUVECs); assay: In vitro angiogenesis model (pseudotubule length of HUVECs on matrigel/collagen); type: cell-based; parameters: % activation with respect to FGF2 (in vitro): concentration or dose not given beside the values; details: in vitro; for % activation with respect to FGF2 (in vitro): relative to FGF2
Method: In Vitro Angiogenesis Model
The products are tested for their ability to cause rearrangement of human venous endothelial cells (HUVECs) on matrigel (Becton dickinson 356230) diluted in collagen (rat tail collagen, type I: Becton dickinson 354236). After 24 hours, the cells are observed under a microscope with a ×4 objective and the length of the pseudotubules is measured by means of an image analyser (BIOCOM-logiciel Visiolab 2000).

mice = assay: Sponge angiogenesis model (haemoglobin content of implanted cellulose sponge); type: in vivo; details: at a concentration of 300 μM
From the text: Sponge Angiogenesis Model
The sponge angiogenesis model is an adaptation of the technique of Andrade et al. [Andrade S P, Machado R., Teixeiras, Belo A V, Tarso A M, Beraldo W T—Sponge-induced angiogenesis in mice and the pharmacological reactivity of the neovasculature quantitated by fluorimetric method, Microvascular Research, 1997, 54: 253-61.]
The mice used are BalbC females from Charles River Laboratory, 7 to 10 weeks old. The animals are anaesthetized by intraperitoneal injection of a xylazine/ketamine mixture (1 mg/kg each in 0.9% NaCl). The animal's back is shaved and disinfected with hexomedine. A subcutaneous 5 ml pocket of air is made on the animal's back with sterile air. An incision is then made (approximately 1 cm) on the top of the animal's back in order to implant the sponge in the pocket. The biocompatible cellulose sponge (Cellspon, Interchim, 10 mm in diameter) was sterilized beforehand (autoclave 20 min at 120° C.) and is impregnated with 50 μl of sterile solution containing the test product. Suturing is performed by inserting two 9-mm stainless steel autoclip staples (Subra). The wound is again disinfected with hexomedine. […]
To assay the haemoglobin, 50 μl of each sample are deposited in a 96-well plate, in duplicate. […] The OD values are read on a spectrophotometer at 405 nm, using the Biolise software (Tecan, France). […]

SMILES | EC50 [1] [nM] | % activation with respect to FGF2 (in vitro) [1] [%] | active on the in vitro angiogenesis model (sentence stands under the sponge angiogenesis model) (mice) | EC50 ([1]; Homo sapiens, HUVEC) [nM]
Cc1c(-c2ccc(OCC(=O)NCCCCCCNC(=O)COc3ccc(-c4c(C)c(C(=O)c5ccc6[nH]c(=O)n(CC(=O)O)c(=O)c6c5)n5ccccc45)cc3)cc2)c2ccccn2c1C(=O)c1ccc2[nH]c(=O)n(CC(=O)O)c(=O)c2c1 [Compound 4] | < 1 | 57 | active | –
Cc1c(-c2ccc(C(=O)NCCOCCOCCNC(=O)c3ccc(-c4c(C)c(C(=O)c5ccc6c(=O)n(CC(=O)O)c(=O)[nH]c6c5)n5ccccc45)cc3)cc2)c2ccccn2c1C(=O)c1ccc2c(=O)n(CC(=O)O)c(=O)[nH]c2c1 [Compound 17, 2,2′-{ethane-1,2-diylbis[oxyethane-2,1-diylcarbamoylbenzene-4,1-diyl(2-methylindolizine-1,3-diyl)carbonyl(2,4-dioxo-1,4-dihydroquinazoline-7,3(2H)-diyl)]}diacetic acid] | 10 | 44 | – | –
Cc1c(-c2cccc(C(=O)NCCOCCOCCNC(=O)c3cccc(-c4c(C)c(C(=O)c5ccc6c(=O)n(CC(=O)O)c(=O)[nH]c6c5)n5ccccc45)c3)c2)c2ccccn2c1C(=O)c1ccc2c(=O)n(CC(=O)O)c(=O)[nH]c2c1 [Compound 18, 2,2′-{ethane-1,2-diylbis[oxyethane-2,1-diylcarbamoylbenzene-3,1-diyl(2-methylindolizine-1,3-diyl)carbonyl(2,4-dioxo-1,4-dihydroquinazoline-7,3(2H)-diyl)]}diacetic acid] | < 1 | 85 | – | –
Cc1c(-c2cccc(C(=O)NCCOP(=O)(O)OCCNC(=O)c3cccc(-c4c(C)c(C(=O)c5ccc6c(=O)n(CC(=O)O)c(=O)[nH]c6c5)n5ccccc45)c3)c2)c2ccccn2c1C(=O)c1ccc2c(=O)n(CC(=O)O)c(=O)[nH]c2c1 [Compound 19, [7-({1-[3-({9-[3-(3-{[3-(carboxymethyl)-2,4-dioxo-1,4-dihydroquinazolin-7(2H)-yl]carbonyl}-2-methylindolizin-1-yl)phenyl]-4-hydroxy-4-oxido-9-oxo-3,5-dioxa-8-aza-4λ^5-phosphanon-1-yl}carbamoyl)phenyl]-2-methylindolizin-3-yl}carbonyl)-2,4-dioxo-1,4-dihydroquinazolin-3(2H)-yl]acetic acid] | – | 35 | – | 3
Cc1c(NC(=O)c2cccc(OCC(=O)NCCNC(=O)COc3cccc(C(=O)Nc4c(C)c(C(=O)c5ccc6c(=O)n(CC(=O)O)c(=O)[nH]c6c5)n5ccccc45)c3)c2)c2ccccn2c1C(=O)c1ccc2c(=O)n(CC(=O)O)c(=O)[nH]c2c1 [Compound 20] | < 3 | 61 | – | –
